Data as given in US5935954A, “Compounds with improved multi-drug resistance activity” (Vertex Pharmaceuticals Incorporated, priority 1997, dated 1999).

Target: FKBP12 (Homo sapiens, UniProt P62942)
Assay: FKBP12 binding assay (inhibition of rotomase activity)
Format: biochemical
Settings: apparent Ki
From the text: Preferably, the assay measures inhibition of FKBP12 rotomase activity. Such an assay has also been described by M. W. Harding et al., supra and by J. J. Siekierka et al., supra. In this assay the isomerization of an artificial substrate--N-succinyl-Ala-Ala-Pro-Phe-p-nitroanilide--is followed spectrophotometrically. The assay includes the cis form of the substrate, FKBP12, the inhibitor and chymotrypsin. Chymotrypsin is able to cleave p-nitroanilide from the trans form of the substrate, but not the cis form. Release of p-nitroanilide is measured.
The inhibition of FKBP rotomase activity by the preferred FKBP12 binding compounds present in the compositions of this invention was assayed. In this assay various quantities of FKBP12 binding compound (0nM-10 μM) were added to cis-N-succinyl-Ala-Ala-Pro-Phe-p-nitroanilide in the presence of FKBP12 and chymotrypsin. FKBP12 converts the cis form of the substrate to the trans form. This allows chymotrypsin to cleave p-nitroanilide from the substrate. Release of p-nitroanilide was measured spectrophotometrically. This assay allowed me to measure the change in the first order rate constant of the rotomase activity as a function of FKBP12 binding compound concentration and yielded an estimate of apparent Ki.

FKBP12, sequence (P62942 whole entry, species assumed): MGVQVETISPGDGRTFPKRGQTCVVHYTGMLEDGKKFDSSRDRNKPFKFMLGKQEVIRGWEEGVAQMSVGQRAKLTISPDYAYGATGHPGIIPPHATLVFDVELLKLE

Point of comparison: `COCc1cccc(COC)c1-c1cncc([C@H](OC(=O)[C@@H]2CCCCN2C(=O)C(=O)c2ccco2)/C(C)=C/[C@H]2CC[C@H](O)CC2)c1` [Compound 41], Ki 67 nM. Against it:
- COc1cc(C(=O)C(=O)N2CCCC[C@H]2C(=O)OC(CCCc2ccccc2)c2cccc(C(=CCCc3ccccc3)c3cccnc3)c2)cc(OC)c1OC (stereo partly drawn) [Compound 3] — 4.5-fold higher, 300 nM
- CCOc1ccc(OCC)c(-c2cccc(C(CCCc3ccccc3)OC(=O)[C@@H]3CCCCN3C(=O)C(=O)c3cc(OC)c(OC)c(OC)c3)c2)c1 (stereo partly drawn) [Compound 4] — higher, > 5000 nM
- COc1cc(C(=O)C(=O)N2CCCC[C@H]2C(=O)O[C@@H](CCCc2ccccc2)c2cccc(/C(=C\CCc3ccccc3)c3cccnc3)c2)cc(OC)c1OC [Compound 5] — 60-fold higher, 4000 nM
- COc1cc(C(=O)C(=O)N2CCCC[C@H]2C(=O)O[C@H](CCCc2ccccc2)c2cccc(/C(=C\CCc3ccccc3)c3cccnc3)c2)cc(OC)c1OC [Compound 6] — 2.8-fold lower, 24 nM
- CCOc1ccc(OCC)c(-c2cccc([C@H](CCCc3ccccc3)OC(=O)[C@@H]3CCCCN3C(=O)C(=O)c3cc(OC)c(OC)c(OC)c3)c2)c1 [Compound 7] — higher, > 10000 nM
- CCOc1ccc(OCC)c(-c2cccc([C@@H](CCCc3ccccc3)OC(=O)[C@@H]3CCCCN3C(=O)C(=O)c3cc(OC)c(OC)c(OC)c3)c2)c1 [Compound 8] — 15-fold higher, 1000 nM
- COc1cc(C(=O)C(=O)N2CCCC[C@H]2C(=O)O[C@H](CCCc2ccccc2)c2cccc(/C(=C\CCc3ccccc3)c3ccc[n+]([O-])c3)c2)cc(OC)c1OC [Compound 9] — 9.6-fold lower, 7 nM
- CCOc1ccc(OCC)c(-c2cncc([C@@H](CCCc3ccccc3)OC(=O)[C@@H]3CCCCN3C(=O)C(=O)c3cc(OC)c(OC)c(OC)c3)c2)c1 [Compound 10] — 4.2-fold lower, 16 nM
- CCOc1ccc(OCC)c(-c2cncc([C@@H](CCCc3ccccc3)OC(=O)[C@@H]3CCCCN3C(=O)C(=O)c3ccc(OC)c(OC)c3)c2)c1 [Compound 11] — 9.6-fold lower, 7 nM
- CCOc1ccc(OCC)c(-c2cncc([C@H](CCCc3ccccc3)OC(=O)[C@@H]3CCCCN3C(=O)C(=O)c3ccc(OC)c(OC)c3)c2)c1 [Compound 12] — 2.2-fold lower, 30 nM
- COc1ccc(C(=O)C(=O)N2CCCC[C@H]2C(=O)O[C@H](CCCc2ccccc2)c2cncc(-c3ccccc3OC)c2)cc1OC [Compound 13] — 13-fold lower, 5 nM
- COc1ccc(C(=O)C(=O)N2CCCC[C@H]2C(=O)O[C@@H](CCCc2ccccc2)c2cncc(-c3ccccc3OC)c2)cc1OC [Compound 14] — 5.6-fold lower, 12 nM
- COc1ccccc1-c1cncc([C@@H](CCCc2ccccc2)OC(=O)[C@@H]2CCCCN2C(=O)C(=O)c2cc(OC)c(OC)c(OC)c2)c1 [Compound 15] — 67-fold lower, 1 nM
- CCC/C=C(/c1cccnc1)c1cccc([C@H](CCCc2ccccc2)OC(=O)[C@@H]2CCCCN2C(=O)C(=O)c2cc(OC)c(OC)c(OC)c2)c1 [Compound 16] — 49-fold higher, 3300 nM
- CCC/C=C(/c1cccnc1)c1cccc([C@@H](CCCc2ccccc2)OC(=O)[C@@H]2CCCCN2C(=O)C(=O)c2cc(OC)c(OC)c(OC)c2)c1 [Compound 17] — 110-fold lower, 0.6 nM
- CCOc1ccccc1-c1cncc([C@@H](CCCc2ccccc2)OC(=O)[C@@H]2CCCCN2C(=O)C(=O)c2cc(OC)c(OC)c(OC)c2)c1 [Compound 18] — 170-fold lower, 0.4 nM
- CCOc1ccccc1-c1cncc([C@H](CCCc2ccccc2)OC(=O)[C@@H]2CCCCN2C(=O)C(=O)c2cc(OC)c(OC)c(OC)c2)c1 [Compound 19] — 2.5-fold lower, 27 nM
- CCOc1ccccc1-c1cncc([C@@H](CCCc2ccccc2)OC(=O)[C@@H]2CCCCN2C(=O)C(=O)c2ccc(OC)c(OC)c2)c1 [Compound 20] — 12-fold lower, 5.8 nM
- CCOc1ccccc1-c1cncc([C@H](CCCc2ccccc2)OC(=O)[C@@H]2CCCCN2C(=O)C(=O)c2ccc(OC)c(OC)c2)c1 [Compound 21] — within 1.5-fold, 90 nM
- CCCOc1ccc(OCCC)c(-c2cncc([C@H](CCCc3ccccc3)OC(=O)[C@@H]3CCCCN3C(=O)C(=O)c3cc(OC)c(OC)c(OC)c3)c2)c1 [Compound 23] — 37-fold higher, 2500 nM
- COc1cc(C(=O)C(=O)N2CCCC[C@H]2C(=O)O[C@@H](CCCc2ccccc2)c2cncc(-c3c(OC)cccc3OC)c2)cc(OC)c1OC [Compound 25] — 2.2-fold lower, 30 nM
- CC/C=C(/c1cccnc1)c1cccc([C@@H](CCCc2ccccc2)OC(=O)[C@@H]2CCCCN2C(=O)C(=O)c2cc(OC)c(OC)c(OC)c2)c1 [Compound 29] — 67-fold lower, 1 nM
- CCC/C=C(\c1cccnc1)c1cccc([C@H](CCN2CCOCC2)OC(=O)[C@@H]2CCCCN2C(=O)C(=O)c2cc(OC)c(OC)c(OC)c2)c1 [Compound 31] — 1.9-fold higher, 130 nM
- COc1cc(C(=O)C(=O)N2CCCC[C@H]2C(=O)O[C@@H](/C(C)=C/[C@H]2CC[C@H](O)CC2)c2cncc(-c3c(OC)cccc3OC)c2)cc(OC)c1OC [Compound 33] — 5.6-fold lower, 12 nM
- CCCC/C=C(/c1cccnc1)c1cccc([C@@H](CCN2CCOCC2)OC(=O)[C@@H]2CCCCN2C(=O)C(=O)c2cc(OC)c(OC)c(OC)c2)c1 [Compound 34] — 11-fold lower, 6 nM
- CCCC/C=C(/c1cccnc1)c1cccc([C@H](CCN2CCOCC2)OC(=O)[C@@H]2CCCCN2C(=O)C(=O)c2cc(OC)c(OC)c(OC)c2)c1 [Compound 35] — 5.7-fold higher, 380 nM
- CCCC/C=C(/c1cccnc1)c1cccc([C@H](CCCc2ccccc2)OC(=O)[C@@H]2CCCCN2C(=O)C(=O)c2cc(OC)c(OC)c(OC)c2)c1 [Compound 36] — not separable, > 30 nM
- CCCC/C=C(/c1cccnc1)c1cccc([C@@H](CCCc2ccccc2)OC(=O)[C@@H]2CCCCN2C(=O)C(=O)c2cc(OC)c(OC)c(OC)c2)c1 [Compound 37] — lower, < 1 nM
- CCC/C=C(/c1ccc(C)cc1)c1cncc([C@@H](OC(=O)[C@@H]2CCCCN2C(=O)C(=O)c2ccc(F)cc2)/C(C)=C/[C@H]2CC[C@H](O)CC2)c1 [Compound 38] — within 1.5-fold, 70 nM
- CCC/C=C(/c1ccc(C)cc1)c1cncc([C@H](OC(=O)[C@@H]2CCCCN2C(=O)C(=O)c2ccc(F)cc2)/C(C)=C/[C@H]2CC[C@H](O)CC2)c1 [Compound 39] — within 1.5-fold, 45 nM
- CCC/C=C(\c1cncc([C@@H](OC(=O)[C@@H]2CCCCN2C(=O)C(=O)c2ccc(F)cc2)/C(C)=C/[C@H]2CC[C@H](O)CC2)c1)C1CCCCC1 [Compound 42] — 31-fold higher, 2100 nM
- CCOCc1cc2ccccc2n1-c1cccc([C@H](OC(=O)[C@@H]2CCCCN2C(=O)C(=O)c2ccco2)/C(C)=C/[C@H]2CC[C@H](O)CC2)c1 [Compound 44] — within 1.5-fold, 53 nM
- CCC/C=C(\c1cncc([C@@H](OC(=O)[C@@H]2CCCCN2C(=O)C(=O)c2ccco2)/C(C)=C/[C@H]2CC[C@H](O)CC2)c1)C1CCCCC1 [Compound 45] — 3.4-fold higher, 230 nM
- CCC/C=C(\c1cncc([C@H](OC(=O)[C@@H]2CCCCN2C(=O)C(=O)c2ccco2)/C(C)=C/[C@H]2CC[C@H](O)CC2)c1)C1CCCCC1 [Compound 46] — within 1.5-fold, 100 nM
- COC/C=C(\c1cncc([C@H](OC(=O)[C@@H]2CCCCN2C(=O)C(=O)c2ccco2)/C(C)=C/[C@H]2CC[C@H](O)CC2)c1)C1CCCCC1 [Compound 47] — within 1.5-fold, 84 nM
- COC/C=C(\c1cncc([C@@H](OC(=O)[C@@H]2CCCCN2C(=O)C(=O)c2ccco2)/C(C)=C/[C@H]2CC[C@H](O)CC2)c1)C1CCCCC1 [Compound 48] — 1.8-fold higher, 120 nM
- CCOCc1cccc(COCC)c1-c1csc(C(CCN2CCOCC2)OC(=O)[C@@H]2CCCCN2C(=O)C(=O)C(C)(C)COC)c1 (stereo partly drawn) [Compound 49] — higher, > 10000 nM
- CCOCc1cccc(COCC)c1-c1csc(C(CCN2CCOCC2)OC(=O)[C@@H]2CCCCN2C(=O)C(=O)C(C)(C)COC)c1 (stereo partly drawn) [Compound 50] — higher, > 10000 nM
- COCc1cccc(COC)c1-c1cncc([C@H](OC(=O)[C@@H]2CCCCN2C(=O)C(=O)C(C)(C)COC)/C(C)=C/[C@H]2CC[C@H](O)CC2)c1 [Compound 51] — higher, > 10000 nM
- C=CCC/C=C(/c1cccnc1)c1ccc([C@H](OC(=O)[C@@H]2CCCCN2C(=O)C(=O)C(C)(C)C)/C(C)=C/C2CCN(C)CC2)s1 [Compound 53] — within 1.5-fold, 70 nM
- C=CCC/C=C(/c1cccnc1)c1ccc([C@@H](OC(=O)[C@@H]2CCCCN2C(=O)C(=O)C(C)(C)COC)/C(C)=C/C2CCN(C)CC2)s1 [Compound 55] — higher, > 10000 nM
- C=CCC/C=C(/c1cccnc1)c1ccc([C@H](OC(=O)[C@@H]2CCCCN2C(=O)C(=O)C(C)(C)COC)/C(C)=C/C2CCN(C)CC2)s1 [Compound 56] — higher, > 5000 nM
- CCOCc1cc2ccccc2n1-c1cccc([C@H](OC(=O)[C@@H]2CCCCN2C(=O)C(=O)C2(O)CCOCC2)/C(C)=C/[C@H]2CC[C@H](O)CC2)c1 [Compound 57] — 14-fold higher, 930 nM
- CCOCc1cc2ccccc2n1-c1cccc([C@H](OC(=O)[C@@H]2CCCCN2C(=O)C(=O)C(C)(C)COC)/C(C)=C/[C@H]2CC[C@H](O)CC2)c1 [Compound 58] — higher, > 9000 nM
- COC/C=C(\c1cncc([C@H](OC(=O)[C@@H]2CCCCN2C(=O)C(=O)CC(C)C)/C(C)=C/[C@H]2CC[C@H](O)CC2)c1)C1CCCCC1 [Compound 60] — within 1.5-fold, 57 nM
- CCOCc1cccc(COCC)c1-c1csc([C@@H](CCN2CCOCC2)OC(=O)[C@@H]2CCCCN2C(=O)C(=O)C(C)(C)C)c1 [Compound 62] — within 1.5-fold, 100 nM
- CCOCc1cccc(COCC)c1-c1csc([C@@H](CCN2CCOCC2)OC(=O)[C@@H]2CCCCN2C(=O)C(=O)C(C)(C)C)c1 [Compound 63] — higher, > 5000 nM
- CCOCc1cccc(COCC)c1-c1csc([C@H](CCN2CCOCC2)OC(=O)[C@@H]2CCCCN2C(=O)C(=O)C(C)(C)C)c1 [Compound 64] — 5.1-fold higher, 340 nM
- CCOCc1cc2ccccc2n1-c1cccc([C@H](OC(=O)[C@@H]2CCCCN2C(=O)C(=O)C2(O)CCOCC2)/C(C)=C/[C@H]2CC[C@H](O)CC2)c1 [Compound 65] — 7.3-fold higher, 490 nM
- C=CCC/C=C(\c1ccc([C@@H](CCN2CCOCC2)OC(=O)[C@@H]2CCCCN2C(=O)C(=O)CC(C)C)s1)C1CCOCC1 [Compound 66] — within 1.5-fold, 55 nM
